The values that follow come from PMC5078010 (Oncotarget, 2016).

Entries after “also recorded” stand apart in the source; their conditions may differ. FAM = carboxyfluorescein

In experiment [1] the test system is xenograft tumours in mice; p53. Also on record: method as in PMID 25145672, PMID 26070072. As to conditions: cited from earlier work.
For experiment [2], the system named is HDM2 variant C12 (residues 1-125) / p53. As to the kind of experiment: In vitro pull-down, selectant C12. It counts as binding, human. The conditions noted are these: PM2 10 μM; HDM2 residues 1-125.
Method: (§3) Protein G beads were incubated with anti-HA (1μg per 10μL beads) for 1 hour in PBST-3%BSA and subsequently washed thrice in PBST-0.1%BSA. IVT-expressed protein was incubated with the beads on a rotator for 30 mins. […] IVT-containing secondary protein was added to the mixture and incubation allowed for 1 hour. Beads were finally washed thrice in PBST-0.1%BSA and thrice with PBS, and bound proteins eluted by resuspension in 20μL SDS-PAGE loading buffer and incubation at 95 °C for 5 minutes. Where required, blank IVT extract (no template DNA added) was used as control. The eluates were subjected to electrophoresis, transferred to nitrocellulose membranes and probed for p53 with DO1-HRP or for HDM2 with anti-HA antibody followed by rabbit anti-mouse (Dakocytomation). Image acquisition was carried out using either film or digitally (Odyssey FC, Li-Cor).
The test system of the next experiment is HDM2 Y48C (1-125) / p53. The experiment in a line: In vitro pull-down, Y48C. Type of experiment: binding, human. As to conditions: HDM2 (1-125) Y48C.
Experiment [3] has as its system WT and indicated C11/C12-derived HDM2 (1-125) mutants / p53. The experiment in a line: In vitro pull-down, Fig. S1B. It counts as binding, human.
Method: as §3
The test system of experiment [4] is HDM2 L34P (full length) / p53 in p53/MDM2-null DKO cells. The experiment in a line: p53 reporter assay in DKO cells, L34P. It counts as cell-based, mouse. The conditions noted are these: knockdown of p53 activity decreased ~7 fold vs WT. For orientation: A reporter such as luciferase makes a cellular process visible.
Method: Mouse embryonic fibroblast p53/Mdm2 double-knockout (DKO) cells (a kind gift from Guillermina Lozano) [58] were maintained in Dulbecco's modified Eagle's medium (DMEM) with 10% (v/v) foetal calf serum (FCS) and 1% (v/v) penicillin/streptomycin. The cells were seeded at 1.0 × 10^5 cells/well in 6-well plates, 24 hours prior to transfection. […] In all cases, the total amount of plasmid DNA transfected per well was equilibrated by addition of the parental vector pcDNA3.1a (+).
The subject of experiment [5] is HDM2 Y67H (N-terminal domain) / p53. As to the kind of experiment: In vitro pull-down, Y67H. It counts as binding, human. As to conditions: N-terminal point mutant Y67H.
Method: as §3
The next experiment deals with HDM2 F55A (1-125) / p53. The experiment in a line: In vitro pull-down, F55A. Type of experiment: binding, human. As to conditions: HDM2 (1-125) F55A.
For experiment [6], the system named is C8-derived point mutants in full-length HDM2 / p53. As to the kind of experiment: In vitro pull-down, full-length point mutants. It counts as binding, human. The conditions noted are these: PM2 10 μM; full-length HDM2, mutations displaying the PM2-resistant phenotype.
Method: as §3
The subject of experiment [7] is HDM2 P89S (full length) / p53 in p53/MDM2-null DKO cells. As to the kind of experiment: p53 reporter assay in DKO cells, P89S. Type of experiment: cell-based, mouse. The conditions noted are these: PM2. The protocol: (§1) Mouse embryonic fibroblast p53/Mdm2 double-knockout (DKO) cells (a kind gift from Guillermina Lozano) were maintained in Dulbecco's modified Eagle's medium (DMEM) with 10% (v/v) foetal calf serum (FCS) and 1% (v/v) penicillin/streptomycin. The cells were seeded at 1.0 × 10^5 cells/well in 6-well plates, 24 hours prior to transfection. Cells were co-transfected with parental or individual PM2-resistant HDM2 plasmid, p53-pcDNA plasmid, LacZ reporter plasmid and luciferase transfection efficiency plasmid using TurboFect transfection reagent (Thermo Scientific) according to the manufacturer's instructions. […] In all cases, the total amount of plasmid DNA transfected per well was equilibrated by addition of the parental vector pcDNA3.1a (+).
(§2) DKO cells were harvested 24hours post transfection and β-galactosidase activities were assessed using the Dual-light System (Applied Biosystems) according to the manufacturer's protocol. β-galactosidase activity was normalized with luciferase activity for each sample. To check for expression levels of relevant proteins via western blot, 5 μg of the cell lysates were probed for p53 with horseradish peroxidase conjugated DO1 antibody, for HDM2 and actin with anti-HA antibody and AC15 antibody respectively followed by rabbit anti-mouse.

The test system of experiment [8] is HDM2 L34P (residues 1-125) / p53. As to the kind of experiment: In vitro pull-down, L34P. Also on record: species or system human. The conditions noted are these: PM2 10 μM; N-terminal point mutant L34P; reduced p53 binding.
Method: as §3
The subject of experiment [9] is HDM2 P89S (residues 1-125) / p53. The experiment in a line: In vitro pull-down, P89S. Also on record: species or system human. As to conditions: PM2 10 μM; N-terminal point mutant P89S; p53 binding retained.
Method: as §3
Experiment [10] has as its system HDM2 V108A (N-terminal domain) / p53. As to the kind of experiment: In vitro pull-down, V108A. It counts as binding, human. The conditions noted are these: N-terminal point mutant V108A.
Method: as §3
For experiment [11], the system named is HDM2-C8 (residues 1-125), M62A reverted / p53. The experiment in a line: In vitro pull-down, C8 with M62A reverted. Type of experiment: binding, human.
Method: as §3
For experiment [12], the system named is HDM2 I99V (full length) / p53 in p53/MDM2-null DKO cells. The experiment in a line: p53 reporter assay in DKO cells, I99V. It counts as cell-based, mouse. The conditions noted are these: knockdown reduced ~[…] vs WT. The procedure: as §1, §2
Experiment [13] has as its system HDM2 variant C11 (residues 1-125) / p53. As to the kind of experiment: In vitro pull-down, selectant C11. As to conditions: PM2 10 μM; HDM2 residues 1-125. Type of experiment: binding, human.
Method: as §3
For experiment [14], the system named is HDM2 F55L (residues 1-125) / p53. As to the kind of experiment: In vitro pull-down, F55L. As to conditions: PM2 10 μM; N-terminal point mutant F55L; p53 binding retained. Also on record: species or system human.
Method: as §3
The subject of experiment [15] is HDM2-C8 (full-length) / p53 in p53/MDM2-null DKO cells. As to the kind of experiment: p53 reporter assay in DKO cells, HDM2-C8. Type of experiment: cell-based, mouse. The procedure:
as §1, §2

In the next experiment the test system is HDM2 K36E (1-125) / p53. The experiment in a line: In vitro pull-down, K36E. It counts as binding, human. The conditions noted are these: HDM2 (1-125) K36E.
In experiment [16] the test system is HDM2 variant C8 (residues 1-125) / p53. As to the kind of experiment: In vitro pull-down, selectant C8. It counts as binding, human. As to conditions: PM2 10 μM; HDM2 residues 1-125.
Method: as §3
Experiment [17] relates to WT and indicated C8-derived HDM2 (1-125) point mutants / p53. The experiment in a line: In vitro pull-down, Fig. S1A. Type of experiment: binding, human.
Method: as §3
For experiment [18], the system named is HDM2 I99V (residues 1-125) / p53. The experiment in a line: In vitro pull-down, I99V. Also on record: species or system human. As to conditions: PM2 10 μM; N-terminal point mutant I99V; p53 binding retained.
Method: as §3
The test system of experiment [19] is HDM2 F55L (full length) / p53 in p53/MDM2-null DKO cells. The experiment in a line: p53 reporter assay in DKO cells, F55L. Type of experiment: cell-based, mouse. The conditions noted are these: knockdown reduced ~[…] vs WT. The protocol:
as §1, §2

Experiment [20] relates to wild-type HDM2 (full-length) / p53 in p53/MDM2-null DKO cells. The experiment in a line: p53 reporter assay in DKO cells, WT HDM2. As to conditions: for p53 activity: percentage of p53-alone, ~ 6% without inhibitor. Type of experiment: cell-based, mouse. The protocol:
as §1, §2

For experiment [21], the system named is HDM2 Y60C (full length) / p53 in p53/MDM2-null DKO cells. The experiment in a line: p53 reporter assay in DKO cells, Y60C. It counts as cell-based, mouse. The conditions noted are these: knockdown of p53 activity decreased ~7 fold vs WT. The protocol: as §1, §2
Experiment [22] concerns HDM2 Y60C (residues 1-125) / p53. The experiment in a line: In vitro pull-down, Y60C. Also on record: species or system human. As to conditions: PM2 10 μM; N-terminal point mutant Y60C; reduced p53 binding.
Method: as §3
The test system of experiment [23] is HDM2 C77R (residues 1-125) / p53. The experiment in a line: In vitro pull-down, C77R. It counts as binding, human. The conditions noted are these: N-terminal point mutant C77R.
Method: as §3
Experiment [24] relates to WT and indicated HDM2 (1-125) single and double point mutants / p53. As to the kind of experiment: In vitro pull-down, Fig. S3. Type of experiment: binding, human.
Method: as §3
In experiment [25] the test system is HDM2-F55L (residues 7-134, RFP fusion) / p53 (residues 1-81, GFP fusion) in F2H-BHK cells. As to the kind of experiment: Fluorescent two-hybrid (F2H) co-localization assay. As to conditions: PM2 0-50 μM, 6-8 hours, serum-free DMEM, 37°C; n=2. It counts as cell-based.
The next experiment concerns HDM2 L82P. As to conditions: at the cost of reduced p53 binding; cited from earlier work. The source says:
The crystal structure of the stapled peptide M06 bound to HDM2-M62A was recently described. […] The side chains of L34 and Y60 pack against numerous hydrophobic residues contributing to the p53-binding hydrophobic cleft (Figure 8). Mutations to less bulky residues (P and C respectively) likely result in altered struc ...

Another experiment deals with HDM2 M62A. As to conditions: M62A mutation; earlier selection of Nutlin-resistant HDM2; cited from earlier work.
For experiment [26], the target named is T1, HDM2-F55L (amino acids 1-125), recombinant (human, UniProt Q00987 1-125, F55L).
T1 construct: also called mutant HDM2-F55L; source: E. coli BL21(DE3) pLysS, purified (GSTrap, on-column PreScission cleavage, Resource S cation exchange)
As to the kind of experiment: fluorescence polarisation; competitive fluorescence anisotropy, apparent Kd; PM2 or p53 peptide titrated against wild-type HDM2 at 150 nM or HDM2-F55L at 200 nM with 50 nM FAM-12-1 peptide; PBS pH 7.4, 3% DMSO, 0.1% Tween-20. The conditions noted are these: both partners purified.

Experiment [27] addresses T2, HDM2 (amino acids 1-125), recombinant (human, UniProt Q00987 1-125).
T2 construct: also called WT HDM2; source: E. coli BL21(DE3) pLysS, purified (GSTrap, on-column PreScission cleavage, Resource S cation exchange)
The description is as above. As to conditions: both partners purified.

T1 sequence (Q00987 1-125 F55L): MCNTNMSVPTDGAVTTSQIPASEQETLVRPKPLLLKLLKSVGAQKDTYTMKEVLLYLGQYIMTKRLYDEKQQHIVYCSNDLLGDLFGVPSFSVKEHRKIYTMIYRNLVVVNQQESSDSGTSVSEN
T2 sequence (Q00987 1-125): as the sequence (Q00987 1-125 F55L) above, with L55F counted along it
Method for HDM2 F55A (1-125) / p53: as §3
Method for HDM2 K36E (1-125) / p53: as §3
Method for HDM2 Y48C (1-125) / p53: as §3

For the molecule `CC(C)(C)C[C@@H]1N[C@@H](C(=O)N[C@H]2CC[C@H](O)CC2)[C@H](c2cccc(Cl)c2F)[C@]12C(=O)Nc1cc(Cl)ccc12` [SAR405838], the development of resistance entry in experiment [1] is recorded as “development of resistance to the Nutlin analogue SAR405838 was associated with a point-mutated p53 that still retained activity”.

`CC(=O)N[C@H](C(=O)N[C@@H](CO)C(=O)N[C@@H](Cc1ccccc1)C(=O)N[C@]1(C)CCCCCCC=CCCC[C@@](C)(C(N)=O)NC(=O)[C@H](CC(C)C)NC(=O)[C@H](CC(C)C)NC(=O)[C@H](C)NC(=O)[C@H](Cc2c[nH]c3ccccc23)NC(=O)[C@H](Cc2ccc(O)cc2)NC(=O)[C@H](CCC(=O)O)NC1=O)[C@@H](C)O` [PM2]: the “PM2 resistance (inhibition of p53 pull-down)” value is “appeared significantly resistant to PM2, with little or no reduction in their interaction with p53 in the presence of PM2” in experiment [2]; “showed no PM2-resistance phenotype” in [5]; “reduced inhibition by PM2; also recorded: behaved similarly when introduced as point mutants into full-length HDM2” in experiment [6]; “clearly resistant to PM2 binding” in experiment [8]; “showed weak resistance to PM2” in experiment [9]; “showed no PM2-resistance phenotype” in experiment [10]. The “PM2 resistance (inhibition of p53 pull-down)” value is on record as “appeared significantly resistant to PM2, with little or no reduction in their interaction with p53 in the presence of PM2” in experiment [13]; “showed weak resistance to PM2” in experiment [14]; “appeared significantly resistant to PM2, with little or no reduction in their interaction with p53 in the presence of PM2” in [16]; “showed weak resistance to PM2” in experiment [18]; “clearly resistant to PM2 binding” in experiment [22]; “showed no PM2-resistance phenotype” in [23]. Besides, the “resistance phenotype (p53 pull-down)” value with HDM2 Y48C (1-125) / p53 and with HDM2 K36E (1-125) / p53 was “Only the L54P mutation showed an exceptionally weak resistance phenotype” each time. Further, the “PM2 inhibition of p53 pull-down” value in [3], in experiment [17] and in experiment [24] was “no significant reduction in PM2 inhibition” each time. Besides, the “rescue of p53 activity by PM2” value in experiment [4] and in experiment [21] was “no rescue observed” in each case. Further, the “effect of F55A on interaction with p53 or PM2” value in the experiment on HDM2 F55A (1-125) / p53 is given as “make little difference towards interaction with p53 or PM2”. The “behaviour in p53 reporter assay” value in experiment [7] was “essentially behaved like wild-type HDM2”. In experiment [11], the “PM2 resistance after reversion of M62A in C8” value is given as “little impact upon reversion of the M62A mutation to PM2 binding in HDM2-C8; also recorded: reversion of this mutation in the C8 selectant did not alter the phenotype”. Further, the “magnitude of rescue of p53 activity by PM2” value in experiment [12] is recorded as ~ 3.2 fold; in [19] it was ~ 3.2 fold; in [20] (comparison with F55L and I99V (Figures 6B, 6C)), ~ 4 fold. Also, the “increase in p53 activity on addition of PM2” value in experiment [15] (PM2 20 μM) is given as “did not result in any significant increase in p53 activity”. The p53 activity in experiment [20] (PM2 20 μM) is on record as ~ 26%. Further, the “inhibition of p53-HDM2 F55L interaction compared to WT” value in experiment [25] is recorded as “no significant difference compared to WT for inhibition”.

As to Nutlin [reference compound], in experiment [15] (Nutlin 10 μM), the “effect of Nutlin on C8 function” value was “had little effect in abrogating the function of C8”. In addition, the “resistance of L82P to Nutlin binding” value in the experiment with HDM2 L82P is recorded as “resistant to Nutlin binding at the cost of reduced p53 binding”. Moreover, the p53 activity in [20] (Nutlin 10 μM) is ~ 26%. Also, in experiment [21], the “rescue of p53 activity by Nutlin” value is “no rescue observed”. Also, in the experiment on HDM2 M62A, the “effect of M62A on Nutlin binding” value is “shown to abrogate Nutlin binding”.

B1: carboxyfluorescein (FAM) labelled 12-1 peptide (peptide)
peptide: {FAM}-RFMDYWEGL-NH2
notes: tracer peptide of the fluorescence anisotropy assay; also called the labelled peptide
Turning to B1, the binding result in experiment [26] and in experiment [27] was “binds” each time.
